Assay results as given in paper PMC6567057, “Pharmacokinetic, metabolic stability, plasma protein binding and CYP450s inhibition/induction assessment studies of N-(2-pyridylmethyl)-2-hydroxiymethyl-1-pyrrolidinyl-4-(3-chloro-4-methoxy-benzylamino)-5-pyrimidine-carboxamide as potential type 5 phosphodiesterase inhibitors” (Animal Cells and Systems, 2019).
Read-outs that look alike come from different tables or passages of the source.

Tests used:
[1] = test system: CYP1A2; assay: CYP induction in human primary hepatocytes; type: in vitro ADME; details: CYP1A2, human primary hepatocytes of three batches, 0.10, 1.00 or 10.0 μM, 72 h
Experimental: (§1) The hepatocytes were seeded on a collagenated 48-well plate for 24 h in an incubator at 37°C (moisturized, with 5% CO2). The hepatocytes were then incubated with the test article thereafter. The stock solutions of omeprazole (100 mM), rifampin (20.0 mM), testosterone (200 mM), phenacetin (100 mM) and NHPPC (50.0 mM) were prepared in DMSO, and were diluted using the cell culture medium. The DMSO content in the final solutions was 0.10%, the medium containing 0.10% DMSO was used as the blank control. The cells were co-incubated with the positive control inducers or NHPPC for 72 h and during the incubation the medium was changed every day. After the incubation, the medium was discarded and replaced with 200 μL phenol red-free culture medium containing 100 μM phenacetin (CYP1A2 probe substrate) or 200 μM testosterone (CYP3A4 probe substrate). After the incubation in the presence of the probe substrates at 37°C for 1 h, the supernatants were collected and stored at −80°C until analysis. All incubations were also conducted in triplicate. The generated metabolites of the CYP1A2 and CYP3A4 probe substrates were analyzed by LC/MS/MS methods. The induction effects of the positive control inducers and NHPPC were assessed by the amount of metabolites formed in the induced and uninduced hepatocytes. The percent induction of positive control was calculated using the following equation. […]

[2] = test system: CYP3A4; assay: CYP induction in human primary hepatocytes; type: in vitro ADME; details: CYP3A4, human primary hepatocytes of three batches, 0.10, 1.00 or 10.0 μM, 72 h
Experimental: as §1

[3] = In vivo pharmacokinetic study in dogs; set-up: species or system male Beagle dogs; details: dog; for MRT inf: read-out: MRT0-∞
[4] = male, Beagle, plasma, IV 1 mg/kg
[5] = male, Beagle, plasma, PO 1 mg/kg

percent induction of positive control [1]: less than 40%
percent induction of positive control [2]: less than 40%
K10 ([3]; IV 1 mg/kg): 0.52 ± 0.03 h⁻¹
K10 ([3]; PO 1 mg/kg): 0.45 ± 0.06 h⁻¹
BA ([3]; PO 1 mg/kg vs IV 1 mg/kg, 1 mg/kg): 53.1 ± 14.2%
AUC(0-inf) [3, 4]: 685 ± 40 ng·h/mL
AUC(0-t) [3, 4]: 679 ± 38.5 ng·h/mL
clearance [3, 4]: 24.3 mL/min/kg
half-life [3, 4]: 79.8 ± 3.6 min
MRT inf [3, 4]: 1.15 ± 0.04 h
Vd ([3]; male, Beagle, plasma, IV 1 mg/kg, read-out: Vss): 1.68 ± 0.08 L/kg
AUC(0-inf) [3, 5]: 364 ± 97.4 ng·h/mL
AUC(0-t) [3, 5]: 351 ± 96.1 ng·h/mL
Cmax [3, 5]: 144 ± 35.3 ng/mL
Tmax [3, 5]: 30 min
half-life [3, 5]: 94.2 ± 13.2 min
MRT inf [3, 5]: 2.54 ± 0.15 h
Tmax ([3]; male, beagle, plasma, PO 1 mg/kg): 30 to 60 min
Structure (SMILES): COc1ccc(CNc2nc(N3CCC[C@H]3CO)ncc2C(=O)NCc2ccccn2)cc1Cl [NHPPC, N-(2-pyridylmethyl)-2-hydroxiymethyl-1-pyrrolidinyl-4-(3-chloro-4-methoxy-benzylamino)-5-pyrimidine-carboxamide]
